From paper PMC10180488, “Novel Derivatives of Eugenol as a New Class of PPARγ Agonists in Treating Inflammation: Design, Synthesis, SAR Analysis and In Vitro Anti-Inflammatory Activity” (Molecules, 2023)
Values joined by “and” are separate entries in the source; they are usually repeats but may differ in a detail not shown here. Equal entries are not always repeated.

Columns and labels:
[1] = target: T1, human PPARγ- LBD (Homo sapiens, UniProt P37231); experiment: Lanthascreen TR-FRET PPARγ competitive binding assay; conditions: for IC50: Lanthascreen TR-FRET competitive binding; for Raw Data / Raw Data - Background: TR-FRET
T1 construct: a mixture of a human PPARγ- LBD labelled with glutathione S-transferase (GST)
T1 sequence (P37231 238-503 limits assumed): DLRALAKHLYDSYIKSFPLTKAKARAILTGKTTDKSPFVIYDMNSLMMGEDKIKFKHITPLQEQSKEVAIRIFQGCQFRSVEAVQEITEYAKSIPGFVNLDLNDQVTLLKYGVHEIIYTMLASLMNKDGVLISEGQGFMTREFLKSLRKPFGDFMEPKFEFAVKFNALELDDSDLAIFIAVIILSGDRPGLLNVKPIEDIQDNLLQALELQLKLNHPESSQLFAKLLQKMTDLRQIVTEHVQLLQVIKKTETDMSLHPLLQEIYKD
Protocol: Using the Lanthasreen TR-FRET assay, the synthesized compounds were first preliminary tested for the PPARγ binding affinity. […] A chemical under test displaces the tracer from PPAR-LBD, which lowers the TR-FRET ratio and decreases the FRET signal Figure 8 [33].
A multimode low-volume proxy plate reader was used to read the plates after one hour of incubation. Then, a mixture of a human PPARγ- LBD labelled with glutathione S-transferase (GST), a fluorescent small pan-PPAR ligand (FluormoneTM Pan-PPAR Green), and terbium-labeled anti-GST antibody was added.

[2] = system: human red blood cells (HRBC); experiment: HRBC membrane stabilization method; conditions: for HRBC membrane stabilization (percentage protection against HRBC lysis): mean ± SD (n = 3); for IC50: Homo sapiens, Erythrocyte, read-out: IC50 Values, HRBC membrane stabilization method
Protocol: The principle of this procedure is to stabilize the membrane of human red blood cells by hypotonic membrane lysis. […] Lysosomal enzyme levels typically decrease as the HRBC membrane is stabilized.
The packed cells in this blood solution were separated after centrifugation at 3000 rpm [41]. The packed cells were cleaned using an isosaline solution, and then, isosaline was used to prepare a 10% v/v suspension. This HRBC suspension was employed to estimate its anti-inflammatory properties. Different concentrations of the synthesized compounds and the reference standard were each combined with 1 mL of phosphate buffer (pH 7.4), 2 mL of hyposaline, and 0.5 mL of HRBC solution. A total of 2.0 mL of distilled water was utilized as the control. The assay mixtures were all centrifuged at 3000 rpm after 30 min of incubation at 37°C. The following formula was used to determine the percentage of stabilized HRBC membranes. Percentage protection= 100 − (OD sample/OD control) × 100

[3] = target: egg albumin (Gallus gallus, UniProt P01012); experiment: Albumin denaturation assay; type: biochemical, hen; conditions: mean ± SD (n = 3), read-out: Percentage inhibition of denaturation of albumin
Sequence of egg albumin (P01012 2-386): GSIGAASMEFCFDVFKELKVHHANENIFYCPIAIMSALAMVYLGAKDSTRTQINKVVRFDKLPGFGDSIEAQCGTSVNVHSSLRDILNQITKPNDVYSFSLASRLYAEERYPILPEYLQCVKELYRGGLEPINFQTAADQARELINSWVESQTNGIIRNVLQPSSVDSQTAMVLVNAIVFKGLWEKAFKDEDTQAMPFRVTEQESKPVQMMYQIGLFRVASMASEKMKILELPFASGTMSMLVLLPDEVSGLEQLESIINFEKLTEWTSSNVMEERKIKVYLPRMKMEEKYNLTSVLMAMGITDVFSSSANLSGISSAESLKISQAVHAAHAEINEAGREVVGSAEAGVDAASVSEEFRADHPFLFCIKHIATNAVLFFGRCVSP
Protocol: Inflammation is accompanied by protein denaturation. Tissue protein denaturation is a well-established cause of Inflammatory illnesses. Inflammatory disorders including rheumatoid arthritis, diabetes, and cancer have been linked to the denaturation of proteins. The ability of a substance to stop proteins from becoming denaturized has a role in the prevention of inflammatory disorders. […] Denaturation of proteins is accomplished by keeping the reaction mixture in a water bath at 70 °C for […].
Minor modifications were made to Mizushima and Kobayashi’s and Sakat et al. methodologies. The reaction mixture containing 0.2 mL of egg albumin (from a fresh hen’s egg) is mixed with 2.8 mL of phosphate-buffered saline (PBS, pH 6.4) and 2 mL of synthesized compounds in varying concentrations. The mixture was then heated at 70 °C for 5 min after being incubated at 37 °C for approximately 15–20 min. After cooling, their absorbance was measured at 660 nm spectrometrically. Three duplicates of the experiment were carried out. […] Percentage inhibition = (OD control − OD sample/OD control) × 100

Structure (SMILES) | IC50 [1] [µM] | Raw Data ([1]; 0.0000512 µM) [RLU] | Raw Data - Background ([1]; 0.0000512 µM) [RLU] | Raw Data ([1]; 0.000256 µM) [RLU] | Raw Data - Background ([1]; 0.000256 µM) [RLU] | HRBC membrane stabilization (percentage protection against HRBC lysis) ([2]; 6.25 µM) [%] | HRBC membrane stabilization (percentage protection against HRBC lysis) ([2]; 12.5 µM) [%] | HRBC membrane stabilization (percentage protection against HRBC lysis) ([2]; 25 µM) [%] | HRBC membrane stabilization (percentage protection against HRBC lysis) ([2]; 50 µM) [%] | HRBC membrane stabilization (percentage protection against HRBC lysis) ([2]; 100 µM) [%] | HRBC membrane stabilization (percentage protection against HRBC lysis) ([2]; 200 µM) [%] | HRBC membrane stabilization (percentage protection against HRBC lysis) ([2]; 400 µM) | IC50 [2] [µM] | inhibition at 6.25 µM [3] [%] | inhibition at 12.5 µM [3] [%] | inhibition at 25 µM [3] [%] | inhibition at 50 µM [3] [%] | inhibition at 100 µM [3] [%] | inhibition at 200 µM [3] [%] | inhibition at 400 µM [3] [%] | also measured
C=CCc1ccc(OCC(=O)Nc2ccccc2)c(OC)c1 [Compound 1a, 2-(4-Alyl-2-methoxyphenoxy)-N-phenylacetamide] | 29.8 | 1.916 | 1.681 | 1.915 | 1.68 | 4.79 ± 0.48 | 10.45 ± 0.38 | 21.40 ± 0.36 | 28.78 ± 0.66 | 37.88 ± 0.28 | 47.23 ± 0.48 | 60.88% and 60.88 ± 0.36% | 79.5 | 1.67 ± 0.37 | 5.32 ± 0.37 | 10.2 ± 0.24 | 14.5 ± 0.43 | 19.2 ± 0.24 | 25.1 ± 0.31 | 32.3 ± 0.37 | Raw Data ([1]; 0.00128 µM): 1.916 RLU; Raw Data - Background ([1]; 0.00128 µM): 1.681 RLU; Raw Data ([1]; 0.0064 µM): 1.92 RLU; Raw Data - Background ([1]; 0.0064 µM): 1.685 RLU; Raw Data ([1]; 0.032 µM): 2.058 RLU; Raw Data - Background ([1]; 0.032 µM): 1.823 RLU; Raw Data ([1]; 0.16 µM): 1.971 RLU; Raw Data - Background ([1]; 0.16 µM): 1.736 RLU; Raw Data ([1]; 0.8 µM): 1.899 RLU; Raw Data - Background ([1]; 0.8 µM): 1.664 RLU; Raw Data ([1]; 4 µM): 1.717 RLU; Raw Data - Background ([1]; 4 µM): 1.483 RLU; Raw Data ([1]; 20 µM): 1.047 RLU; Raw Data - Background ([1]; 20 µM): 0.813 RLU; Raw Data ([1]; 100 µM): 0.245 RLU; Raw Data - Background ([1]; 100 µM): 0.01 RLU
O=C(O)Cc1ccccc1Nc1c(Cl)cccc1Cl [Standard Diclofenac, Diclofenac, reference compound] |  |  |  |  |  | 15.99 ± 0.64 | 26.93 ± 0.55 | 43.54 ± 0.48 | 52.58 ± 0.48 | 62.30 ± 0.59 | 76.87 ± 0.64 | 90.77 ± 0.36% | 48.1 | 10.2 ± 0.55 | 15.3 ± 0.43 | 28.2 ± 0.61 | 38.93 ± 0.37 | 49.5 ± 0.51 | 60.29 ± 0.36 | 68.54 ± 0.43 | HRBC membrane stabilization (percentage protection against HRBC lysis) ([2]; 400 µM, listed as diclofenac sodium): 90.77% and 90%
C=CCc1ccc(OCC(=O)Nc2ccccc2C)c(OC)c1 [Compound 1c, 2-(4-Allyl-2-methoxyphenoxy)-N-(o-tolyl)acetamide] | 8.2 | 1.881 | 1.647 | 1.88 | 1.646 | 6.21 ± 0.38 | 14.26 ± 0.38 | 24.78 ± 0.38 | 29.08 ± 0.46 | 40.65 ± 0.28 | 50.92 ± 0.48 | 62.54% and 62.54 ± 0.36% | 79.7 | 1.77 ± 0.37 | 5.32 ± 0.37 | 8.42 ± 0.24 | 13.8 ± 0.43 | 19.2 ± 0.24 | 27.26 ± 0.24 | 34.03 ± 0.31 | Raw Data ([1]; 0.00128 µM): 1.88 RLU; Raw Data - Background ([1]; 0.00128 µM): 1.637 RLU; Raw Data ([1]; 0.0064 µM): 1.886 RLU; Raw Data - Background ([1]; 0.0064 µM): 1.651 RLU; Raw Data ([1]; 0.032 µM): 1.902 RLU; Raw Data - Background ([1]; 0.032 µM): 1.657 RLU; Raw Data ([1]; 0.16 µM): 1.994 RLU; Raw Data - Background ([1]; 0.16 µM): 1.76 RLU; Raw Data ([1]; 0.8 µM): 1.991 RLU; Raw Data - Background ([1]; 0.8 µM): 1.756 RLU; Raw Data ([1]; 4 µM): 1.33 RLU; Raw Data - Background ([1]; 4 µM): 1.096 RLU; Raw Data ([1]; 20 µM): 0.1617 RLU; Raw Data - Background ([1]; 20 µM): 0.02704 RLU; Raw Data ([1]; 100 µM): 0.06866 RLU; Raw Data - Background ([1]; 100 µM): -0.146 RLU
C=CCc1ccc(OCC(=O)Nc2cccc(C(F)(F)F)c2)c(OC)c1 [Compound 1d, 2-(4-Allyl-2-methoxyphenoxy)-N-[(3-trifluoromethyl)phenyl]acetamide] | 6.47 | 2.02 | 1.876 | 2.04 | 1.881 | 8.85 ± 0.36 | 17.77 ± 0.46 | 28.72 ± 0.46 | 34.74 ± 0.56 | 45.51 ± 0.28 | 56.45 ± 0.31 | 67.40 ± 0.28% | 66.3 | 4.21 ± 0.37 | 8.79 ± 0.32 | 14 ± 0.31 | 18.8 ± 0.39 | 32.46 ± 0.32 | 38.49 ± 0.37 | 49.09 ± 0.18 | Raw Data ([1]; 0.00128 µM): 2 RLU; Raw Data - Background ([1]; 0.00128 µM): 1.79 RLU; Raw Data ([1]; 0.0064 µM): 2.061 RLU; Raw Data - Background ([1]; 0.0064 µM): 1.836 RLU; Raw Data ([1]; 0.032 µM): 1.99 RLU; Raw Data - Background ([1]; 0.032 µM): 1.875 RLU; Raw Data ([1]; 0.16 µM): 1.945 RLU; Raw Data - Background ([1]; 0.16 µM): 1.78 RLU; Raw Data ([1]; 0.8 µM): 2.018 RLU; Raw Data - Background ([1]; 0.8 µM): 1.89 RLU; Raw Data ([1]; 4 µM): 1.542 RLU; Raw Data - Background ([1]; 4 µM): 1.307 RLU; Raw Data ([1]; 20 µM): 0.593 RLU; Raw Data - Background ([1]; 20 µM): 0.497 RLU; Raw Data ([1]; 100 µM): 0.6527 RLU; Raw Data - Background ([1]; 100 µM): 0.4876 RLU
C=CCc1ccc(OCC(=O)Nc2ccccc2Cl)c(OC)c1 [Compound 1f, 2-(4-Allyl-2-methoxyphenoxy)-N-(2-chlorophenyl)acetamide] | 5.15 | 1.795 | 2.02 | 1.801 | 2.04 | 15.17 ± 0.64 | 25.09 ± 0.66 | 41.88 ± 0.55 | 49.50 ± 0.46 | 58.61 ± 0.38 | 73.43 ± 0.36 | 85.79 ± 0.18% | 55 | 7.74 ± 0.34 | 13.6 ± 0.23 | 24.4 ± 0.48 | 31 ± 0.55 | 43.08 ± 0.43 | 50 | 62.41 ± 0.42 | Raw Data ([1]; 0.00128 µM): 1.764 RLU; Raw Data - Background ([1]; 0.00128 µM): 2 RLU; Raw Data ([1]; 0.0064 µM): 1.826 RLU; Raw Data - Background ([1]; 0.0064 µM): 2.061 RLU; Raw Data ([1]; 0.032 µM): 1.766 RLU; Raw Data - Background ([1]; 0.032 µM): 1.99 RLU; Raw Data ([1]; 0.16 µM): 1.711 RLU; Raw Data - Background ([1]; 0.16 µM): 1.945 RLU; Raw Data ([1]; 0.8 µM): 1.881 RLU; Raw Data - Background ([1]; 0.8 µM): 2.056 RLU; Raw Data ([1]; 4 µM): 1.247 RLU; Raw Data - Background ([1]; 4 µM): 1.542 RLU; Raw Data ([1]; 20 µM): 0.799 RLU; Raw Data - Background ([1]; 20 µM): 0.862 RLU; Raw Data ([1]; 100 µM): 0.7757 RLU; Raw Data - Background ([1]; 100 µM): 0.9427 RLU
